Source: patent US9611248B2, “Chemical compounds” (Syngenta Participations AG, priority 2013, dated 2017)

System: a variety of test species
Assay: Post-emergence herbicidal activity
Assay type: in vivo
Design: key to ABUTH (Abutilon theophrasti) damage score / AMARE (Amaranthus retroflexus) damage score / ALOMY (Alopecurus myosuroides) damage score / ECHCG (Echinochloa crus-galli) damage score / ZEAMX (Zea mays) damage score / SOLNI (Solanum nigrum) damage score: 0 = no damage to plant, 5 = total damage to plant
Details: rate 1000 g/ha, evaluated after 13 days
Outline: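 Damage on a 0–5 scale (5 = plant killed) was rated 13 days after treatment. Test species had been sown in standard soil and raised 8 days under glasshouse conditions of 24/16 °C, 14 h light, 65% humidity. They were then sprayed with aqueous solution from an acetone/water 50:50 formulation containing 0.5% Tween 20.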

With `COc1nnc(N2C(=O)C(C)=C(Br)C2O)cc1C` (stereo not drawn) [BB1] the “ABUTH (Abutilon theophrasti) damage score” value (“ABUTH” for short) was 1, the “ALOMY (Alopecurus myosuroides) damage score” value (“ALOMY” below) was 0 and the “AMARE (Amaranthus retroflexus) damage score” value (shortened to “AMARE”) was 0. For the same compound, the “ECHCG (Echinochloa crus-galli) damage score” value (“ECHCG” for short) was 1, the “SETFA (Setaria faberi) damage score” value was 2 and the “ZEAMX (Zea mays) damage score” value was 0.

`COC1=C(C)C(=O)N(c2cc(C(C)(C)C)cnn2)C1O` (stereo not drawn) [BD1, 1-(5-tert-butylpyridazin-3-yl)-2-hydroxy-3-methoxy-4-methyl-2H-pyrrol-5-one] was tested, and the “ABUTH” value was 5, the “ALOMY” value was 4 and the “AMARE” value was 5. The “ECHCG” value was 5, the “SETFA (Setaria faberi) damage score” value was 5 and the “ZEAMX (Zea mays) damage score” value was 1.

For `COC1=C(C)C(=O)N(c2cc(C(C)(C)C)c(Cl)nn2)C1O` (stereo not drawn) [BD2], the “ABUTH” value was 5, the “ALOMY” value was 4 and the “AMARE” value was 5. For the same compound, the “ECHCG” value was 5, the “SETFA (Setaria faberi) damage score” value was 5 and the “ZEAMX (Zea mays) damage score” value was 2.

With `COC1=C(C)C(=O)N(c2ccc(Cl)nn2)C1O` (stereo not drawn) [BD3] the “ABUTH” value was 1, the “ALOMY” value was 1 and the “AMARE” value was 2. The “ECHCG” value was 1, the “SETFA (Setaria faberi) damage score” value was 2 and the “ZEAMX (Zea mays) damage score” value was 0.

`COC1=C(C)C(=O)N(c2cc(C(C)(C)CCl)c(Cl)nn2)C1O` (stereo not drawn) [BD4] was tested, and the “ABUTH” value was 5, the “ALOMY” value was 4 and the “AMARE” value was 4. For the same compound, the “ECHCG” value was 4, the “SETFA (Setaria faberi) damage score” value was 5 and the “ZEAMX (Zea mays) damage score” value was 0.

For `COC1=C(C)C(=O)N(c2cc(C(C)C)c(OC)nn2)C1O` (stereo not drawn) [BD5], the “ABUTH” value was 5, the “ALOMY” value was 5 and the “AMARE” value was 5. For the same compound, the “ECHCG” value was 5, the “SETFA (Setaria faberi) damage score” value was 5 and the “ZEAMX (Zea mays) damage score” value was 3.

For `C=CCOc1nnc(N2C(=O)C(C)=C(OC)C2O)cc1C(C)C` (stereo not drawn) [BD6], the “ABUTH” value was 1, the “ALOMY” value was 1 and the “AMARE” value was 0. For the same compound, the “ECHCG” value was 1, the “SETFA (Setaria faberi) damage score” value was 2 and the “ZEAMX (Zea mays) damage score” value was 1.

`CCOc1nnc(N2C(=O)C(C)=C(OC)C2O)cc1C(C)C` (stereo not drawn) [BD7] was tested, and the “ABUTH” value was 5, the “ALOMY” value was 5 and the “AMARE” value was 5. For the same compound, the “ECHCG” value was 5, the “SETFA (Setaria faberi) damage score” value was 5 and the “ZEAMX (Zea mays) damage score” value was 3.

`COC1=C(C)C(=O)N(c2cc(C(C)(C)F)c(Cl)nn2)C1O` (stereo not drawn) [BD8] was tested, and the “ABUTH” value was 5, the “ALOMY” value was 4 and the “AMARE” value was 5. For the same compound, the “ECHCG” value was 5, the “SETFA (Setaria faberi) damage score” value was 5 and the “ZEAMX (Zea mays) damage score” value was 2.

`COC1=C(C)C(=O)N(c2cc(C(C)(C)C)c(-c3ccc(F)cc3)nn2)C1O` (stereo not drawn) [BD9] was tested, and the “ABUTH” value was 2, the “ALOMY” value was 3 and the “AMARE” value was 5. For the same compound, the “ECHCG” value was 2, the “SETFA (Setaria faberi) damage score” value was 4 and the “ZEAMX (Zea mays) damage score” value was 1.

With `COC1=C(C)C(=O)N(c2cc(C(C)(C)C)c(OC)nn2)C1O` (stereo not drawn) [BD10] the “ABUTH” value was 5, the “ALOMY” value was 5 and the “AMARE” value was 5. The “ECHCG” value was 5, the “SETFA (Setaria faberi) damage score” value was 5 and the “ZEAMX (Zea mays) damage score” value was 4.

In the case of `COC1=C(C)C(=O)N(c2cc(C)c(Cl)nn2)C1O` (stereo not drawn) [BD11], the “ABUTH” value is reported as 4, the “ALOMY” value is reported as 2 and the “AMARE” value is reported as 2. For the same compound, the “ECHCG” value was 1, the “SETFA (Setaria faberi) damage score” value was 2 and the “ZEAMX (Zea mays) damage score” value was 0.

With `COC1=C(C)C(=O)N(c2cc(C(C)(C)C)c(N3CC(F)(F)C3)nn2)C1O` (stereo not drawn) [BD12] the “ABUTH” value was 5, the “ALOMY” value was 4 and the “AMARE” value was 5. For the same compound, the “ECHCG” value was 5, the “SETFA (Setaria faberi) damage score” value was 5 and the “ZEAMX (Zea mays) damage score” value was 2.

`COC1=C(C)C(=O)N(c2ccc(C(=O)NC(C)(C)C)nn2)C1O` (stereo not drawn) [BD13] was tested, and the “ABUTH” value was 5, the “ALOMY” value was 5 and the “AMARE” value was 5. For the same compound, the “ECHCG” value was 5, the “SETFA (Setaria faberi) damage score” value was 5 and the “ZEAMX (Zea mays) damage score” value was 4.

With `COC1=C(C)C(=O)N(c2cc(C(C)(C)C)c(-c3cccc(C#N)c3)nn2)C1O` (stereo not drawn) [BD14] the “ABUTH” value was 4, the “ALOMY” value was 4 and the “AMARE” value was 5. The “ECHCG” value was 3, the “SETFA (Setaria faberi) damage score” value was 4 and the “ZEAMX (Zea mays) damage score” value was 1.

`CC1=C(Cl)C(O)N(c2cc(C(C)(C)C)ncn2)C1=O` (stereo not drawn) [CA1] was tested, and the “ABUTH” value was 1, the “ALOMY” value was 1 and the “AMARE” value was 3. For the same compound, the “ECHCG” value was 1, the “SETFA (Setaria faberi) damage score” value was 2 and the “ZEAMX (Zea mays) damage score” value was 1.

For `CC1=C(Cl)C(O)N(c2cc(C(F)(F)F)ncn2)C1=O` (stereo not drawn) [CA2], the “ABUTH” value was 0, the “ALOMY” value was 1 and the “AMARE” value was 0. For the same compound, the “ECHCG” value was 0, the “SETFA (Setaria faberi) damage score” value was 0 and the “ZEAMX (Zea mays) damage score” value was 0.

With `CCC1=C(Cl)C(O)N(c2cc(C(C)(C)C#N)ncn2)C1=O` (stereo not drawn) [CA3] the “ABUTH” value was 1, the “ALOMY” value was 0 and the “AMARE” value was 1. For the same compound, the “ECHCG” value was 0, the “SETFA (Setaria faberi) damage score” value was 0 and the “ZEAMX (Zea mays) damage score” value was 0.

In the case of `CCCC1=C(Cl)C(O)N(c2cc(C(C)(C)C#N)ncn2)C1=O` (stereo not drawn) [CA4], the “ABUTH” value is reported as 2, the “ALOMY” value is reported as 1 and the “AMARE” value is reported as 1. For the same compound, the “ECHCG” value was 0, the “SETFA (Setaria faberi) damage score” value was 1 and the “ZEAMX (Zea mays) damage score” value was 1.

With `CC1=C(Br)C(O)N(c2cc(C(F)(F)F)ncn2)C1=O` (stereo not drawn) [CB1] the “ABUTH” value was 1, the “ALOMY” value was 1 and the “AMARE” value was 1. For the same compound, the “ECHCG” value was 1, the “SETFA (Setaria faberi) damage score” value was 0 and the “ZEAMX (Zea mays) damage score” value was 1.

With `COC1=C(C)C(=O)N(c2cc(N3CCCCC3)ncn2)C1O` (stereo not drawn) [CD1, 2-hydroxy-3-methoxy-4-methyl-1-[6-(1-piperidyl)pyrimidin-4-yl]-2H-pyrrol-5-one] the “ABUTH” value was 0, the “ALOMY” value was 0 and the “AMARE” value was 0. For the same compound, the “ECHCG” value was 0, the “SETFA (Setaria faberi) damage score” value was 0 and the “ZEAMX (Zea mays) damage score” value was 0.
